# Test results: US20120294859A1, “CANCER STEM CELL MARKERS AND USES THEREOF” (GLYCOTOPE GMBH, priority 2010, published 2012)
# Columns and labels:
# [1] = test system: MCF-7 breast adenocarcinoma cells; test: Flow cytometry of CD44/CD176 expression after 4-OHT treatment; assay type: cell-based, human
# Description: (§1) Cell suspensions of cell lines were prepared at 1×10^6 cells/100 μl. Cells were washed twice with PBS containing 2% BSA and incubated with primary antibodies at appropriate dilutions at 4° C. for 20 min, followed by anti-IgG-Cy3 (γ chain-specific) and anti-IgM-FITC (μ chain-specific) at appropriate concentrations at 4° C. for 20 min. Flow cytometry was performed with a FACScan (BD Biosciences, Franklin Lakes, N.J., USA). Collected data from 10,000 cells and WinMDI software were used in the analysis of FCS […]. For 4-hydroxytamoxifen treatment, MDA231, MDA435 and MCF-7 breast adenocarcinoma cell lines were exposed to 4-OHT (#H6278, Sigma) at a final concentration of 20 nM for 24 h. Then flow cytometry analysis was performed as described above.
# [2] = test system: MDA231 breast adenocarcinoma cells; test: as above; assay type: cell-based, human
# Description: as §1
# [3] = test system: MDA435 breast adenocarcinoma cells; test: as above; assay type: cell-based, human; details: for change in percentage of CD44^+/CD176^+ cells after treatment: MDA435, 24 h, 20 nM
# Description: as §1
# [4] = test system: MCF-7 breast adenocarcinoma cells; test: Flow cytometry of CD44/CD173/CD174 expression after 4-OHT treatment; assay type: cell-based; details: MCF-7, 20 nM for 24 h, P>0.05
# Description: (§2) Cell suspensions from established cell lines were prepared at a density of 1×10^6 cells/100 μl. They were washed twice with phosphate buffered saline (PBS) containing 2% BSA and incubated with primary antibodies at 4° for 20 min, followed by anti IgG-Cy3 (γ chain-specific) and anti IgM-FITC (μ chain-specific) in appropriate concentrations at 4° for 20 min. Flow cytometry was performed on a FACScan (BD Biosciences, Franklin Lakes, N.J., USA). Collected data from 10,000 cells and WinMDI software were used for the analysis of FACS […]. For 4-hydroxytamoxifen treatment, MDA-MB-231, MDA-MB-435 and MCF-7 breast adenocarcinoma cell lines were exposed to 4-OHT (#H6278, Sigma) at a final concentration of 20 nM for 24 h. Then flow cytometry analysis was performed as described above.
# [5] = test system: MDA-MB-231 breast adenocarcinoma cells; test: as above; assay type: cell-based; details: MDA231, 20 nM for 24 h, P<0.05
# Description: as §2
# [6] = test system: MDA-MB-435 breast adenocarcinoma cells; test: as above; assay type: cell-based; details: MDA-MB-435, 20 nM for 24 h, P>0.05
# Description: as §2
# [7] = MCF-7, 4-OHT 20 nM for 24 h, percent of the positive cells
# [8] = MDA231, 4-OHT 20 nM for 24 h, percent of the positive cells
# [9] = MDA435, 4-OHT 20 nM for 24 h, percent of the positive cells
compound,measurement,setting,value
"CC/C(=C(\c1ccc(O)cc1)c1ccc(OCCN(C)C)cc1)c1ccccc1 [4-OHT, 4-hydroxytamoxifen]",CD44^+/C176^+ cells,[1]; [7],~8%
same,CD44^+/CD176^− cells,[1]; [7],~20%
same,CD44^−/CD176^+ cells,[1]; [7],~8%
same,CD44^−/CD176^− cells,[1]; [7],>60%
same,change in number of CD44^+/CD176^+ co-expressing cells after treatment,"[1]; MCF-7, 24 h, 20 nM",no significantly increased number
same,CD44^+/C176^+ cells,[2]; [8],~2%
same,CD44^+/CD176^− cells,[2]; [8],~1%
same,CD44^−/CD176^+ cells,[2]; [8],~13%
same,CD44^−/CD176^− cells,[2]; [8],>60%
same,change in number of CD44^+/CD176^+ co-expressing cells after treatment,"[2]; MDA231, 24 h, 20 nM",no significantly increased number
same,CD44^+/C176^+ cells,[3]; [9],~12%
same,CD44^+/CD176^− cells,[3]; [9],~50%
same,CD44^−/CD176^+ cells,[3]; [9],~7%
same,CD44^−/CD176^− cells,[3]; [9],~31%
same,change in percentage of CD44^+/CD176^+ cells after treatment,[3],increased
same,change in percentage of CD44^+/CD176^+ cells after treatment,[3]; listed as tamoxifen,enhanced
same,change in percentage of CD44^+CD173^+ cells after treatment,[4],not
same,change in percentage of CD44^+CD174^+ cells after treatment,[4],not
same,change in percentage of CD44^+CD173^+ cells after treatment,[5],increased
same,change in percentage of CD44^+CD174^+ cells after treatment,[5],increased
same,change in percentage of CD44^+CD173^+ cells after treatment,[6],not
same,change in percentage of CD44^+CD174^+ cells after treatment,[6],not
